# Source: patent US5622960A, “Topoisomerase II inhibitors and therapeutic uses therefor” (The United States of America as represented by the …, priority 1992, dated 1997)
# Experiments:
# Topoisomerase II = experiment: topoisomerase II inhibition: drug-induced DNA cleavage in presence of HL-60 extract or purified top 2; assay type: biochemical; conditions: for top 2 inhibition / top 2 activity (in words): DNA cleavage assays; for Topoisomerase II inhibition: class symbols without legend, HL-60 extract or purified top 2; for effect of hydroxyl substitution on top 2 activity: 1 versus 6, DMDP versus DMEP
# From the text: Because the azatoxin skeleton is synthetically accessible, a large number of derivatives are readily prepared and screened for top 2 inhibitory activity in accordance with the present invention. Such screening can be effected by means of an in vitro assay which employs purified top 2 and ^32 P-end-labelled DNA. In such an assay, top 2 inhibition by a test substance results in DNA fragmentation which can be detected by agarose gel electrophoresis, as described by Fesen and Pommier, J. Biol. Chem. 19:11354-59 (1989); by the filter-binding assay described by Pommier et al., Biochem. 24:6410-16 (1985); or by the sodium dodecylsulfate precipitation assay employed by Nelson et al., Proc. Nat'l Acad. Sci. USA81: 1361-65 (1984).
# (§1) Chemicals, and enzymes: Azatoxin and its derivatives, as well as the demethyldesoxypodophyllotoxin (DMDP) and demethylepipodophyllotoxin (DMEP), were synthesized by conventional methods. The compounds m-AMSA and mitoxantrone were obtained from the Drug Synthesis and Chemistry Branch, National Cancer Institute, Bethesda, Md. The compounds VP-16 and VM-26 were obtained from Bristol-Myers Company (Wallingford, Conn.). Drug stock solutions were made in dimethylsulfoxide at 10 mM. Further dilutions were made in distilled water. Various other reagents, including simian virus 40 (SV40) and c-myc human DNA inserts in plasmid pBR322, restriction endonucleases, DNA topoisomerase I, T4 polynucleotide kinase, calf intestine phosphatase, agarose and polyacrylamide/bis, were purchased from Bethesda Research Laboratories (Gaithersburg, Md.), from the American Type Culture Collection (Rockville, Md.) or from New England Biolabs (Beverly, Mass.). [Gamma-^32 P]ATP was purchased from New England Nuclear Research Products (Boston, Mass.).
# (§2) DNA topoisomerase II was purified from mouse leukemia L1210 cell nuclei as described, for example, by Pommier et al. (1985), supra, and was stored at -70° C. in 40% (v/v) glycerol, 0.35 M NaCl, 5 mM MgCl2, 1 mM KH2 PO4, 0.2 mM dithiothreitol and 0.1 mM phenylmethanesulfonyl fluoride (pH 6.4). The purified enzyme yielded a single 170 kDa band after silver staining of SDS-polyacrylamide gels, in accordance with the description of Pommier et al., Cancer Res. 46: 3075-81 (1986).
# (§3) Preparation of end-labeled DNA fragments: DNA fragments were 5' end-labeled as described, for example, by Fesen and Pommier (1989), supra. Briefly, native DNA was first linearized with a restriction enzyme, […] then the 5'-DNA termini were dephosphorylated with calf alkaline phosphatase and labeled with [gamma-^32 P]ATP using T4 polynucleotide kinase. For double-strand breaks assays using HL-60 nuclear extract, SV40 DNA was digested with BclI endonuclease and labeled at both DNA termini. For sequencing experiments, SV40 and c-myc DNAs were first 5'-end labeled at the XhoII and XbaI restriction sites, respectively. Then, in order to generate uniquely 5'-end-labeled fragments, labeled DNA was subjected to a second enzyme digestion, PflMI for SV40, and EcoRI plus HindIII for c-myc DNA. The resulting DNA fragments were separated by agarose gel electrophoresis and isolated by electroelution. Purification by phenol-chloroform extraction and ethanol precipitation were included between each step and at the end of the labeling procedures, pursuant to Pommier et al., J. Molec. Biol. 222: 909-24 (1991).
# Topoisomerase II-induced DNA cleavage reactions: DNA fragments were equilibrated with or without drug in 10 mM Tris-HCl, pH 7.5, 50 mM KCl, 5 mM MgCl2 0.1 mM EDTA, 1 mM ATP and 15 μg/ml bovine serum albumin for 5 minutes before addition of purified topoisomerase II (40 to 70 ng) or HL-60 nuclear extract in 20 μl final reaction volume. Reactions were stopped by adding sodium dodecyl sulfate (SDS) to a final concentration of 1% and proteinase K to 400 μg/ml, followed by incubation for 1 hour at 40° C. […]
# SV40 DNA = experiment: DNA unwinding (intercalation) assay with excess topoisomerase I; assay type: biochemical, simian virus 40; conditions: relaxed SV40 DNA, excess topoisomerase I; concentrations as high as 1 mM
# Procedure: To assess DNA unwinding, see Pommier et al., Nucleic Acids Res. 15: 6713-31(1987), the DNA was relaxed first by treatment for 15 minutes with top 1 (20 units), after which the test agent was added. These steps were carried out at 37° C. DNA-agent-top 1 mixtures were incubated for an additional 30 minutes and then stopped as described above. Samples were then subjected to agarose gel electrophoresis as described above.
# This was also the case for the 2 azatoxin isomers, 8 and 10, and for the demethylepipodophyllotoxins, DMDP and DMEP. Similar results were obtained with supercoiled DNA.
# [1] = target: T1, purified murine leukemia top 2 (Mus musculus, UniProt Q01320); experiment: Sequencing of topoisomerase II cleavage sites (SV40 and c-myc DNA); assay type: biochemical
# T1 construct: single 170 kDa band on silver-stained SDS-PAGE
# T1 sequence (Q01320 whole entry): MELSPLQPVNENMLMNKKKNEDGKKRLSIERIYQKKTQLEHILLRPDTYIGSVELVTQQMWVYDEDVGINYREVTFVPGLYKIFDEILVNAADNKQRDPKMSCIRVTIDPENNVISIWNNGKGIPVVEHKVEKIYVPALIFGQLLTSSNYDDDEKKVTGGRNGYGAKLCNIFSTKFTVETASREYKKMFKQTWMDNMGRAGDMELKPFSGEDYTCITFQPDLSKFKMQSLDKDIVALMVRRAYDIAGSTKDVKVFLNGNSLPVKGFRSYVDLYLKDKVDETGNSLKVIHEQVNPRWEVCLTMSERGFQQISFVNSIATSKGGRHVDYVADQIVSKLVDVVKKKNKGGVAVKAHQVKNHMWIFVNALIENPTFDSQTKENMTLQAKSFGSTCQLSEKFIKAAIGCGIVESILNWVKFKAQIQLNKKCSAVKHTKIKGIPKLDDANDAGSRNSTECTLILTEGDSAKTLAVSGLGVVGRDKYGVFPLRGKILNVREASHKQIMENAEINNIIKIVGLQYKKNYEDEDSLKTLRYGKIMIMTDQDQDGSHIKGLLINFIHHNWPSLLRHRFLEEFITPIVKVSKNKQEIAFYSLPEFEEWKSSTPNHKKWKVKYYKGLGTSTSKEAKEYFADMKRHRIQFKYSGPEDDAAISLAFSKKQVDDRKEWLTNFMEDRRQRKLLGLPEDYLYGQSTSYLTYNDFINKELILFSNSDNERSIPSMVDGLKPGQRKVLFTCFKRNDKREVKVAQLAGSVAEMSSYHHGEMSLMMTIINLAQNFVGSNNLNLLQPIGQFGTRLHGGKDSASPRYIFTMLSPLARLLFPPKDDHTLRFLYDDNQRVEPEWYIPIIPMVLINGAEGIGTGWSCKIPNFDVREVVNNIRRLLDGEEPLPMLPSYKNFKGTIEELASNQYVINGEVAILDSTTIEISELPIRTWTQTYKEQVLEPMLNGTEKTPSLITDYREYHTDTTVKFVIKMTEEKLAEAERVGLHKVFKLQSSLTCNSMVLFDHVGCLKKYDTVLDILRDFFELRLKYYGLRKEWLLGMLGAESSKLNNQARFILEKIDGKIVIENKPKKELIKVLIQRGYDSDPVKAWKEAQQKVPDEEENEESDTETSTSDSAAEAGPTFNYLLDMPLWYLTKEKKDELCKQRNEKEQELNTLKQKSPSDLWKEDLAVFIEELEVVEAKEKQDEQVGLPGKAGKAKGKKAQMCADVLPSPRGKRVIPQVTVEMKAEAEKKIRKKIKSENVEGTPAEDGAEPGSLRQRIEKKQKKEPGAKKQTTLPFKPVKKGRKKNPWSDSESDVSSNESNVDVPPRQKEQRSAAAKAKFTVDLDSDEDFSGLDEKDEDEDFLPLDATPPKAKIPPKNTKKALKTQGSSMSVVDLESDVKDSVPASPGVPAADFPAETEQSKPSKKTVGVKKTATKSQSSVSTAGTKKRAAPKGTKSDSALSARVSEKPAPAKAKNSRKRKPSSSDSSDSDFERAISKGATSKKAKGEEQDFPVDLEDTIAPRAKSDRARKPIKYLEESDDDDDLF
# Procedure: as §1, §2, §3
# Topoisomerase II-induced DNA cleavage reactions: DNA fragments were equilibrated with or without drug in 10 mM Tris-HCl, pH 7.5, 50 mM KCl, 5 mM MgCl2 0.1 mM EDTA, 1 mM ATP and 15 μg/ml bovine serum albumin for 5 minutes before addition of purified topoisomerase II (40 to 70 ng) or HL-60 nuclear extract in 20 μl final reaction volume. Reactions were stopped by adding sodium dodecyl sulfate (SDS) to a final concentration of 1% and proteinase K to 400 μg/ml, followed by incubation for 1 hour at 40° C.
# For DNA sequence analysis, samples were precipitated with ethanol and resuspended in 2.5 μl loading buffer (80% formamide, 10 mM NaOH, 1 mM EDTA, 0.1% xylene cyanol and 0.1% bromophenol blue). Samples were heated to 90° C. and immediately loaded into DNA sequencing gels (6% polyacrylamide; 19:1, acrylamide:bis) containing 7M urea in (1×) TBE buffer. Electrophoresis was at 2500 V (60 W) for 4 hours. Gels were dried on 3M paper sheets and autoradiographed with Kodak XAR-2 film. See Pommier et al. (1991), supra.
# Induction of top 2 cleavage by azatoxin was tested directly with the use of purified murine leukemia top 2. […] Sites of cleavage were also determined by DNA sequencing in the 5' flank of c-myc first intron.
# [2] = system: top 2 (HL-60 nuclear extract); experiment: Induction of DNA double-strand breaks in SV40 DNA in presence of HL-60 nuclear extract; assay type: biochemical; conditions: up to 1 mM
# Procedure: as §1
# as §3, with “Purification by phenol-chloroform extraction and ethanol precipitation were included between each step and at the end of the labeling procedures, pursuant to Pommier et al., J. Molec. Biol. 222: 909-24 (1991).” left out
# For agarose gel analysis, 3 μl (10×) loading buffer (0.3% bromophenol blue, 16% Ficoll, 10 mM Na2 HPO4) was added to each sample which was then heated at 65° C. for 1-2 minutes before loading into an agarose gel made in (1×) TBE (89 mM Tris, 89 mM boric acid, 2 mM EDTA, pH8), in accordance with Fesen & Pommier (1989), supra. […] The quantification of drug-induced DNA double-strand breaks in the presence of HL-60 nuclear extract was effected as described in the next paragraph.
# Radioactive gels were counted in betascope 603 blot analyzer. […] Drug-induced cleavage was expressed as: [formula] where C. and T. are the counts for cleaved and total DNA, respectively, in presence of nuclear extract without drug.
# Drug-induced DNA double-strand breaks were measured first in SV40 DNA in the presence of HL-60 nuclear extracts. […]
Compound,top 2 inhibition / top 2 activity (in words) (Topoisomerase II),Topoisomerase II inhibition (Topoisomerase II),DNA unwinding (SV40 DNA),further results
"COc1cc([C@@H]2c3[nH]c4ccccc4c3C[C@H]3COC(=O)N32)ccc1O [Compound 2, 5R, 11aS-3-One-5,4,11,11a-tetrahydro-5-(3-methoxy-4-hydroxyphenyl)-1H, 6H-oxazolo[3', 4': 1.6]pyrido[3,4-b]indole]",,.smallcircle.,,factor of reduction of top 2 activity by monodemethoxylation of pendant ring (Topoisomerase II; versus azatoxin): 10
"COc1cc([C@@H]2c3[nH]c4ccccc4c3C[C@@H]3COC(=O)N32)cc(OC)c1O [Compound 9, 5R,11aR-3-One-5,4,11,11a-tetrahydro-5-(3,5-dimethoxy-4-hydroxyphenyl)-1H, 6H-oxazolo[3'4':1,6']pyrido[3,4-b]indole]",inactive,.largecircle.,,
"COc1cc([C@H]2c3[nH]c4ccccc4c3C[C@H]3COC(=O)N32)cc(OC)c1O [Compound 10, 5S, 11aS-3-One-5,4,11,11a-tetrahydro-5-(3,5-dimethoxy-4-hydroxyphenyl)-1H, GH-oxazolo[3'4':1,6]pyrido[3,4-b]indole]",inactive,.largecircle.,did not induce detectable DNA unwinding even at drug concentrations as high as 1 mM,
"COc1cc([C@@H]2c3cc4c(cc3C[C@H]3COC(=O)[C@@H]32)OCO4)cc(OC)c1O [DMDP, 4'-demethyl-4-desoxypodophyllotoxin, reference compound]",,,did not induce detectable DNA unwinding even at drug concentrations as high as 1 mM,"top 2 cleavage sites induced (number/amount) ([1]; SV40 and c-myc DNA, purified murine top 2): induced less cleavage that azatoxin; top 2 cleavage pattern ([1]; compared with other top 2 inhibitors): at distinct cleavages sites"
"COc1cc([C@@H]2c3cc4c(cc3[C@@H](O)[C@H]3COC(=O)[C@H]23)OCO4)cc(OC)c1O [DMEP, 4'-demethylepipodophyllotoxin, reference compound]",,,did not induce detectable DNA unwinding even at drug concentrations as high as 1 mM,top 2 cleavage potency (in words) [1]: at least as potent as VP-16; effect of hydroxyl substitution on top 2 activity (Topoisomerase II): increases activity
"COc1cc([C@@H]2c3cc4c(cc3[C@@H](O[C@@H]3O[C@@H]5CO[C@@H](C)O[C@H]5[C@H](O)[C@H]3O)[C@H]3COC(=O)[C@H]23)OCO4)cc(OC)c1O [VP-16, etoposide, reference compound]",,,,suppression of DNA cleavage at high drug concentrations [2]: not suppressed at high drug concentrations (up to 1 mM)

# Continued, in another order:
top 2 inhibition / top 2 activity (in words) (Topoisomerase II),Topoisomerase II inhibition (Topoisomerase II),Compound,DNA unwinding (SV40 DNA),further results
inactive,.largecircle.,"COc1cc([C@@H]2C3=C(C[C@H]4COC(=O)N42)c2cccc4cccc3c24)cc(OC)c1O (relative stereo) [Compound 7, 5,11a-trans-3-one-5,4, 11, 11a-tetrahydro-5-(3,5-dimethoxy-4-hydroxyphenyl)-1H, 10H-oxazol [3', 4':1,6]pyrido[1,2-b]acenapthylene]",,
inactivity,.largecircle.,COc1cc([C@@H]2c3c([nH]c4ccccc34)C[C@H]3COC(=O)N32)cc(OC)c1O (relative stereo) [Compound 8],did not induce detectable DNA unwinding even at drug concentrations as high as 1 mM,
abolished the top 2 activity,.largecircle.,"O=C1OC[C@@H]2Cc3c([nH]c4ccccc34)[C@@H](c3ccc(O)cc3)N12 [Compound 3, 5R, 11aS-3-one-5,4,11,11a-tetrahydro-5-(4-hydroxyphenyl)-1H, 6H-oxazolo[3',4':1,6]pyrido[3,4-b]indole]",,
,.largecircle.,"COc1cc([C@@H]2c3[nH]c4ccccc4c3C[C@H]3COC(=O)N32)cc(OC)c1OC [Compound 4, 5R,11aS-3-one-5,4,11,11a,tetrahydro-5-(3,4,5-trimethoxyphenyl)-1H, 6H-oxazolo[3',4':1,6]pyrido[3,4-b]indole]",,
,.largecircle.,CS(=O)(=O)Nc1ccc([C@@H]2c3[nH]c4ccccc4c3C[C@H]3COC(=O)N32)cc1 [Compound 5],,
measurable but not strong top 2 activity,,"COc1cc([C@@H]2c3[nH]c4ccccc4c3[C@@H](O)[C@H]3COC(=O)N23)cc(OC)c1O [Compound 6, 5R,11R,11aS-3-One-11-hydroxy-5,4,11,11a-tetrahydro-5-(3,5-dimethoxy-4-hydroxyphenyl)-1H, 6H-oxazolo[3'4:1,6]pyrido[3,4-b]indole]",,effect of hydroxyl substitution on top 2 activity (Topoisomerase II): significantly decreases top 2 activity
